Assay results taken from patent publication US5085992A, “Microbial transformation process for antihypertensive products” (Merck & Co., Inc., priority 1991, dated 1992).

Target: T1, Angiotensin II (A II) receptor (Oryctolagus cuniculus, UniProt P34976)
T1 construct: tissue Pel-Freeze Biologicals; host or cells: rabbit aorta, membrane preparation (frozen aortae)
T1 sequence (P34976 1-359): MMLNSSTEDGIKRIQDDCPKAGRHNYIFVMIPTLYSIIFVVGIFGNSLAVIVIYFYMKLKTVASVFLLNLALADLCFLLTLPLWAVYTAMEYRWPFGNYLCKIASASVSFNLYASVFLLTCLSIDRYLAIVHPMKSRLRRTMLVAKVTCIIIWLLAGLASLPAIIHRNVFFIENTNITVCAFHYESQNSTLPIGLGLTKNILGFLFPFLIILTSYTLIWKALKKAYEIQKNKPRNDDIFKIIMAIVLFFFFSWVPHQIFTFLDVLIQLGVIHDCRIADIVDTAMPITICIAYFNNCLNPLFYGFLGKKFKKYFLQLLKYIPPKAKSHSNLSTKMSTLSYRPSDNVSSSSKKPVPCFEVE
Test: Receptor binding assay using rabbit aortae membrane preparation ("IC50" assay; displacement of 125I-Sar1 Ile8-angiotensin II)
Conditions: membrane preparation derived from rabbit aortae; 37° C., 90 minutes; read-out: inhibitory concentration (IC50) giving 50% displacement of the total specifically bound 125I-Sar1 Ile8-angiotensin II
Description: This assay is also referred to herein as the "IC 50 "assay.
RECEPTOR BINDING ASSAY USING RABBIT AORTAE MEMBRANE PREPARATION
Three frozen rabbit aortae (obtained from Pel-Freeze Biologicals) were suspended in 5 mM Tris-0.25 M Sucrose, pH 7.4 buffer (50 ml) homogenized, and then centifuged. The mixture was filtered through a cheesecloth and the supernatant was centrifuged for 30 minutes at 20,000 rpm at 4° C. The pellet thus obtained was resuspended in 30 ml of 50 mM Tris-5 mM MgCl2 buffer containing 0.2% Bovine Serum Albumin and 0.2 mg/ml Bacitration and the suspension was used for 100 assay tubes. Samples tested for screening were done in duplicate. To the membrane preparation (0.25 ml) there was added ^125 I-Sar^1 Ile^8 -angiotensin II [obtained from New England Nuclear] (10 ul; 20,000 cpm) with or without the test sample and the mixture was incubated at 37° C. for 90 minutes. The mixture was then diluted with ice-cold 50 mM Tris-0.9% NaCl, pH 7.4 (4 ml) and filtered through a glass fiber filter (GF/B Whatman 2.4" diameter). The filter was soaked in scintillation cocktail (10 ml) and counted for radioactivity using Packard 2660 Tricarb liquid scintillation counter. […]

IC50: < 50 µM
Structure (SMILES): CCc1nc2c(C)cc(C)nc2n1Cc1ccc(-c2ccccc2-c2nnn([C@@H]3O[C@H](C(=O)O)[C@@H](O)[C@H](O)[C@H]3O)n2)cc1 [compound (I)]
